Reference: patent publication US6818407B2, “Anti-endotoxic antimicrobial cationic peptides and methods of use therfor” (priority 1998, dated 2004)

Experiments:
E. coli [1] = assay: Synergy study (checkerboard titration) with hen white lysozyme; format: cell-based; conditions: for Lowest [CP] showing synergy: cationic peptide concentration, combined with lysozyme; for Lowest [Lyso] showing synergy: lysozyme concentration, combined with the peptide
Method: (§1) The biological activity of the peptides can be determined by standard methods known to those of skill in the art, such as Aminimal inhibitory concentration (MIC)≅ assay described in the present examples, whereby the lowest concentration at which no change in OD is observed for a given period of time is recorded as MIC. Alternatively, Afractional inhibitory concentration (FIC)≅ is also useful for determination of synergy between the peptides of the invention, or the peptides in combination with known antibiotics. FICs are performed by checkerboard titrations of peptides in one dimension of a microtiter plate, and of antibiotics in the other dimension, for example. The FIC is calculated by looking at the impact of one antibiotic on the MIC of the other and vice versa. […] Preferably, an FIC of less than 0.5 is obtained for synergism. As used herein, FIC can be determined as follows: [formula]

P. aeruginosa (H103) = assay: as above; format: cell-based; conditions: for Lowest [CP] showing synergy: cationic peptide concentration, combined with lysozyme; for Lowest [Lyso] showing synergy: lysozyme concentration, combined with the peptide
Method: as §1

Salmonella typhi = assay: as above; format: cell-based; conditions: for Lowest [CP] showing synergy: cationic peptide concentration, combined with lysozyme; for Lowest [Lyso] showing synergy: lysozyme concentration, combined with the peptide
Method: as §1

[2] = test system: mutant (Nal B, H744) of P. aeruginosa; assay: microbe, parasite or virus in culture; format: cell-based; conditions: for (B) MIC of Cipro when combined with peptide: ciprofloxacin with peptide at concentration (A); for MIC A MIC of Peptides: peptide alone, P. aeruginosa mutant Nal B, H744 (Table 5); for (A) Peptide doses together with Cipro: peptide concentration in combination with ciprofloxacin
Method: as §1
(§2) To test whether the peptides of the invention synergize with various antibiotics, the following method was employed. Fractional Inhibitory Concentration (FIC) was used to determine synergy of peptides combined with antibiotics (e.g., carbenicillin/ciprofloxacin) against Pseudomonas aeruginosa. The following methodology was followed:
(§3) (1) Determination of MIC of cationic peptides (MIC A):
(§4) 100 μl Mueller Hinton broth (MHB) was added per well
(§5) 12.5 μl of 10× test concentration peptide was added per well to get final peptide concentration of e.g., 128, 64, 32, . . . 0.025 μg/ml from row 1 to 11;
(§6) 10 μl of 10^−4 dilution of overnight bacterial culture was added per well.
(§7) (2) Determination of MIC of Carbenicillin/Ciprofloxacin (MIC B):
(§8) 100 μl MHB was added per well;
(§9) 100 μl of 2× test concentration of antibiotic was added in the first well of the row, and doubling dilutions performed across the plate from column 1 to 11;
(§10) (3) Determination of MIC of antibiotics (B) when combined with peptides at concentration A:
(§11) 100 μl Carbenicillin (512 μg/ml) or Ciprofloxacin (8 μg/ml) was added in each well of column 1; doubling dilutions were performed across the plate;
(§12) 100 μl of the peptide was added in all wells of row 1, mixed, and 100 μl withdrawn and added to row 2, etc., creating a checkerboard titration.
(§13) 10 μl of 10^−4 dilution of overnight culture was added per well;
(§14) plates were incubated at 37EC for 18-24 hours. Combination MIC values A and B were taken as the lowest concentration of drug that reduced bacterial growth by more than 50% in any given column.
(§15) (4) FIC index=FICA+FICB=(A)/MIC A+(B)/MIC B. An FIC index of approximately 0.5 or less indicates synergy; 1.0 reflects additivity; and >1.0 indicates antagonism.

[3] = test system: β-lactamase derepressed mutant (H547) of P. aeruginosa; assay: microbe, parasite or virus in culture; format: cell-based; conditions: P. aeruginosa H547; for (B) MIC of Carb when combined with peptide: Carbenicillin with peptide at concentration (A); for MIC A MIC of Peptides: peptide alone; for (A) Peptide doses together with Carb: peptide concentration in combination with Carbenicillin
Method: as §1, §2, §3, §4, §5, §6, §7, §8, §9, §10, §11, §12, §13, §14, §15

[4] = Lethal endotoxemia in galactosamine-sensitized mice; format: in vivo, CD-1 mice; conditions: peptide 200 μg intraperitoneal within 10 min of 10 μg LPS; 24 hours post injection; 5 mice per group; no peptide 100
Method: To confirm this in vivo, endotoxic shock was induced by intraperitoneal injection of 10 μg of E.coli 0111:B4 LPS in phosphate-buffered saline (PBS; pH 7.2) into galactosamine-sensitized 8- to 10- week old female CD-1 mice (5 per group). In experiments involving peptides, 200 μg in 100 μl of sterile water was injected at separate intraperitoneal sites within 10 min of LPS injection. Survival was monitored at 24 hours post injection.

S. aureus K147 = assay: MIC, broth microdilution assay in polypropylene microtiter trays; format: cell-based; conditions: average of three separate experiments
Method: as §1
(§16) A method which employed polypropylene microtiter trays in a broth microdilution assay was developed.

E. coli [5] = assay: as above; format: cell-based; conditions: average of three separate experiments
Method: as §1, §16

P. aeruginosa = assay: as above; format: cell-based; conditions: average of three separate experiments
Method: as §1, §16

S. aureus = assay: as above; format: cell-based; conditions: average of three separate experiments
Method: as §1, §16

S. epidermis = assay: as above; format: cell-based; conditions: average of three separate experiments
Method: as §1, §16

[6] = test system: Pseudomonas aeruginosa strain M2; assay: Protection of neutropenic CD-1 mice challenged with Pseudomonas aeruginosa; format: in vivo; design: Survival post bacterial challenge, surviving mice: reference not given here; conditions: for Survival (%) post bacterial challenge: PBS 8
Method: CD-1 mice were induced to be neutropenic via 3 intraperitoneal injections of cyclophosphamide ([…]) every another day. Immediately after the third administration of cyclophosphamide, the mice were challenged by intraperitoneal injection of Pseudomonas aeruginosa strain M2 (200-300 organisms/mouse). Cationic peptides (200 µg per mouse=8 mg/kg) in 100 µl buffered citrate were injected intraperitoneally at 30 min (single dose) or 30 min and 16 hrs (double dose) post bacterial challenge, respectively. The data were the average values of 2 individual experiments. PBS was used as a control. […] In general single dose protection studies gave better protection than double dose experiments.

Compound: CC[C@H](C)[C@H](NC(=O)CNC(=O)[C@@H](NC(=O)[C@H](CCCCN)NC(=O)[C@H](CCCCN)NC(=O)[C@H](Cc1ccccc1)NC(=O)[C@H](CC(C)C)NC(=O)[C@@H](N)CCCCN)[C@@H](C)CC)C(=O)NCC(=O)N[C@@H](C)C(=O)N[C@H](C(=O)N[C@@H](CC(C)C)C(=O)N[C@@H](CCCCN)C(=O)N[C@H](C(=O)N[C@@H](CC(C)C)C(=O)N[C@@H](CCCCN)C(=O)N[C@H](C(=O)N[C@@H](CC(C)C)C(=O)N[C@H](C(=O)N[C@H](C(=O)NCC(=O)N[C@@H](CC(C)C)C(=O)N1CCC[C@H]1C(=O)N[C@@H](C)C(=O)N[C@@H](CC(C)C)C(=O)N[C@@H](CCCCN)C(=O)N[C@@H](CC(C)C)C(=O)N[C@H](C(=O)N[C@@H](CC(C)C)C(=O)N[C@@H](CCCCN)C(=O)O)[C@@H](C)O)[C@@H](C)O)[C@@H](C)O)C(C)C)C(C)C)C(C)C [CM5]
- FIC for combination of cationic peptide and lysozyme (E. coli [1]): 0.27
- Lowest [CP] showing synergy (E. coli [1]): 1.3 µg/mL
- Lowest [Lyso] showing synergy (E. coli [1]): 7.8 µg/mL
- FIC for combination of cationic peptide and lysozyme (P. aeruginosa (H103)): 0.63
- Lowest [CP] showing synergy (P. aeruginosa (H103)): 10.4 µg/mL
- Lowest [Lyso] showing synergy (P. aeruginosa (H103)): 125 µg/mL
- FIC for combination of cationic peptide and lysozyme (Salmonella typhi): 0.56
- Lowest [CP] showing synergy (Salmonella typhi): 10.4 µg/mL
- Lowest [Lyso] showing synergy (Salmonella typhi): 62.5 µg/mL
- (B) MIC of Cipro when combined with peptide ([2]; Nal B, H744): .125 µg/mL
- FIC index ([2]; peptide + ciprofloxacin, Nal B, H744): .75
- MIC A MIC of Peptides [2]: 4 µg/mL
- (A) Peptide doses together with Cipro ([2]; Nal B, H744): 1 µg/mL
- (B) MIC of Carb when combined with peptide [3]: 16 µg/mL
- FIC index ([3]; peptide + Carbenicillin, about 0.5 or less synergy, 1.0 additivity, >1.0 antagonism): 0.38
- MIC A MIC of Peptides [3]: 32 µg/mL
- (A) Peptide doses together with Carb [3]: 4 µg/mL
- Mortality (%) [4]: 80%
- MIC S. aureus K147 (S. aureus K147): 64 µg/mL
- MIC E. coli (E. coli [5]): 4 µg/mL
- MIC P. aeruginosa (P. aeruginosa): 16 µg/mL
- MIC S. aureus (S. aureus): >64 µg/mL
- MIC S. epidermis (S. epidermis): 11 µg/mL

Compound: CC[C@H](C)[C@H](NC(=O)CNC(=O)[C@@H](NC(=O)[C@H](CCCCN)NC(=O)[C@H](CCCCN)NC(=O)[C@H](Cc1ccccc1)NC(=O)[C@H](CCCCN)NC(=O)[C@H](Cc1c[nH]c2ccccc12)NC(=O)[C@@H](N)CCCCN)[C@@H](C)CC)C(=O)NCC(=O)N[C@@H](C)C(=O)N[C@H](C(=O)N[C@@H](CC(C)C)C(=O)N[C@@H](CCCCN)C(=O)N[C@H](C(=O)N[C@@H](CC(C)C)C(=O)N[C@@H](CCCCN)C(=O)N[C@H](C(=O)N[C@@H](CC(C)C)C(=O)N[C@H](C(=O)N[C@H](C(=O)NCC(=O)N[C@@H](CC(C)C)C(=O)N1CCC[C@H]1C(=O)N[C@@H](C)C(=O)N[C@@H](CC(C)C)C(=O)N[C@@H](CCCCN)C(=O)N[C@@H](CC(C)C)C(=O)N[C@H](C(=O)N[C@@H](CC(C)C)C(=O)N[C@@H](CCCCN)C(=O)O)[C@@H](C)O)[C@@H](C)O)[C@@H](C)O)C(C)C)C(C)C)C(C)C [CM6]
- FIC for combination of cationic peptide and lysozyme (E. coli [1]): 0.08
- Lowest [CP] showing synergy (E. coli [1]): 0.326 µg/mL
- Lowest [Lyso] showing synergy (E. coli [1]): 7.8 µg/mL
- FIC for combination of cationic peptide and lysozyme (P. aeruginosa (H103)): 0.63
- Lowest [CP] showing synergy (P. aeruginosa (H103)): 5.21 µg/mL
- Lowest [Lyso] showing synergy (P. aeruginosa (H103)): 125 µg/mL
- FIC for combination of cationic peptide and lysozyme (Salmonella typhi): 0.50
- Lowest [CP] showing synergy (Salmonella typhi): 5.21 µg/mL
- Lowest [Lyso] showing synergy (Salmonella typhi): 7.8 µg/mL
- (B) MIC of Cipro when combined with peptide ([2]; Nal B, H744): .125 µg/mL
- MIC A MIC of Peptides [2]: 1 µg/mL
- (A) Peptide doses together with Cipro ([2]; Nal B, H744): 1 µg/mL
- (B) MIC of Carb when combined with peptide [3]: 64 µg/mL
- MIC A MIC of Peptides [3]: 2 µg/mL
- (A) Peptide doses together with Carb [3]: 1 µg/mL
- Mortality (%) [4]: 100%
- Survival post bacterial challenge, surviving mice ([6]; double dose (200 μg per mouse i.p. at 30 min and 16 hrs), 16 hr): 14
- Survival post bacterial challenge, surviving mice ([6]; double dose, 24 hr): 14
- Survival post bacterial challenge, surviving mice ([6]; double dose, 41 hr): 11
- Survival post bacterial challenge, surviving mice ([6]; double dose, 48 hr): 9
- Survival post bacterial challenge, surviving mice ([6]; double dose, 64 hr): 6
- Survival (%) post bacterial challenge ([6]; double dose, 64 hr): 42%
- Survival post bacterial challenge, surviving mice ([6]; double dose, 72 hr): 6
- Survival (%) post bacterial challenge ([6]; double dose, 72 hr): 42%
- Survival post bacterial challenge, surviving mice ([6]; double dose, 96 hr): 5
- Survival (%) post bacterial challenge ([6]; double dose, 96 hr): 35%
- Survival post bacterial challenge, surviving mice ([6]; single dose (200 μg per mouse i.p. at 30 min), 16 hr): 15
- Survival post bacterial challenge, surviving mice ([6]; single dose, 24 hr): 15
- Survival post bacterial challenge, surviving mice ([6]; single dose, 41 hr): 13
- Survival post bacterial challenge, surviving mice ([6]; single dose, 48 hr): 11
- Survival post bacterial challenge, surviving mice ([6]; single dose, 64 hr): 9
- Survival (%) post bacterial challenge ([6]; single dose, 64 hr): 60%
- Survival post bacterial challenge, surviving mice ([6]; single dose, 72 hr): 9
- Survival (%) post bacterial challenge ([6]; single dose, 72 hr): 60%
- Survival post bacterial challenge, surviving mice ([6]; single dose, 96 hr): 7
- Survival (%) post bacterial challenge ([6]; single dose, 96 hr): 46%
- MIC S. aureus K147 (S. aureus K147): 32 µg/mL
- MIC E. coli (E. coli [5]): 2 µg/mL
- MIC P. aeruginosa (P. aeruginosa): 8 µg/mL
- MIC S. aureus (S. aureus): 32 µg/mL
- MIC S. epidermis (S. epidermis): 8 µg/mL

Compound: H-KWKSFIKKLTSAAKKVVTTAKPLALIS-OH [CM1]
- FIC for combination of cationic peptide and lysozyme (E. coli [1]): 0.19
- Lowest [CP] showing synergy (E. coli [1]): 0.041 µg/mL
- Lowest [Lyso] showing synergy (E. coli [1]): 7.8 µg/mL
- FIC for combination of cationic peptide and lysozyme (P. aeruginosa (H103)): 0.28
- Lowest [CP] showing synergy (P. aeruginosa (H103)): 0.65 µg/mL
- Lowest [Lyso] showing synergy (P. aeruginosa (H103)): 7.8 µg/mL
- FIC for combination of cationic peptide and lysozyme (Salmonella typhi): 0.53
- Lowest [CP] showing synergy (Salmonella typhi): 0.531 µg/mL
- Lowest [Lyso] showing synergy (Salmonella typhi): 31.3 µg/mL
- (B) MIC of Cipro when combined with peptide ([2]; Nal B, H744): .25 µg/mL
- MIC A MIC of Peptides [2]: 2 µg/mL
- (A) Peptide doses together with Cipro ([2]; Nal B, H744): 1 µg/mL
- (B) MIC of Carb when combined with peptide [3]: 64 µg/mL
- MIC A MIC of Peptides [3]: 16 µg/mL
- (A) Peptide doses together with Carb [3]: 2 µg/mL
- Mortality (%) [4]: 100%
- MIC S. aureus K147 (S. aureus K147): 32 µg/mL
- MIC E. coli (E. coli [5]): 1 µg/mL
- MIC P. aeruginosa (P. aeruginosa): 5 µg/mL
- MIC S. aureus (S. aureus): 64 µg/mL
- MIC S. epidermis (S. epidermis): 21 µg/mL
